Results reported in patent publication US20220378706A1, “PHARMACEUTICAL COMPOSITION COMPRISING PDE9 INHIBITOR” (Eisai R&D Management Co., Ltd., priority 2017, published 2022).
Read-outs that look alike come from different tables or passages of the source.

Test: Single dose clinical study: plasma Compound A pharmacokinetics
Type: in vivo, human
Settings: human, plasma, po, plasma
Method: This was a single center, single dose, randomized, double blind, placebo controlled study in healthy subjects. It consisted of 4 parts: Parts A, B, C, and D. Each of the four study parts had 2 phases: Prerandomization Phase and Randomization Phase. The Prerandomization Phase lasted up to 30 days and consisted of a Screening Period and a Baseline Period, during which each subject's study eligibility was determined and baseline assessments were performed.
In Part A, there were 8 sequential cohorts of healthy adult subjects (18-50 years of age). Subjects were randomly assigned to Compound A or placebo in a ratio of 6:2, respectively. Subjects in the Compound A cohorts were treated with single ascending doses of 10, 25, 50, 100, 200, 400, 800, or 1200 mg.
In Part B, there were 4 cohorts of healthy adult subjects (18-50 years of age). There were 8 subjects in Cohort 1, with 6 subjects randomly assigned to receive single doses of Compound A (400 mg) and 2 subjects randomly assigned to receive placebo. There were 7 subjects in Cohort 2 and Cohort 3, each with 6 subjects randomly assigned to receive single doses of Compound A (100 and 200 mg, respectively) and 1 subject randomly assigned to receive placebo. The dose of 100 mg selected in Cohort 2 was based on preliminary analysis of Cohort 1 data; this dose was predicted from PK/PD modeling to achieve a sustained CSF cGMP increase from baseline of approximately 200% when administered to steady state, and thereby provided a potentially therapeutic dose for further evaluation in future studies. There were 7 subjects in Cohort 4, with 6 subjects randomly assigned to receive a single dose of Compound A (50 mg [n=3] or 75 mg [n=3]) and 1 subject randomly assigned to receive placebo. The doses for Cohorts 3 and 4 were selected based on PK/PD modeling of the data in Cohorts 1 and 2.
Subjects in Cohort 2 who had received Compound A 100 mg or placebo under fasted conditions (1st Treatment Period) also participated in an evaluation of food effect on the PK of Compound A (2nd Treatment Period). After a washout period of at least 13 days (or 5 half-lives of Compound A, whichever was longer), subjects were admitted to the clinic for baseline assessments (2nd Baseline Period) and then received a single dose of the same treatment (Compound A 100 mg or placebo) after consuming a high fat and high calorie meal over 30 minutes. Blood PK samples were collected at prespecified time points. Safety evaluations were also assessed. CSF was not collected for PD evaluation during the 2nd Treatment Period. A Follow Up Visit occurred on Day 10 of Treatment Period 2.
In Part C, there was 1 cohort of 8 healthy elderly subjects (65 to 85 years of age) randomly assigned to receive a single dose of Compound A 100 mg or placebo in a ratio of 6:2, respectively.
In Part D, 3 cohorts of healthy adult Japanese subjects were randomized in parallel. There were 7 subjects in each cohort and subjects were randomly assigned to receive single doses of Compound A (25, 100, or 400 mg) or placebo in a ratio of 6:1, respectively.
Blood samples for determination of plasma Compound A concentrations were collected from predose to 216 hours postdose. On Day 1, blood PK samples were collected at predose and postdose 0.5 (30 minutes), 1, 1.5, 2, 3, 4, 5, 6, 8, 12, and 18 hours. Thereafter, samples were collected on Day 2 (24 and 36 hours postdose), Day 3 (48 hours postdose), Day 4 (72 hours postdose), Day 5 (96 hours postdose), Day 6 (120 hours postdose), Day 7 (144 hours postdose), and Day 10 (216 hours postdose).
Blood samples for determination of plasma Compound A concentrations were collected from predose to 216 hours postdose. For all cohorts, blood PK samples were collected on Day 1 at predose and postdose at 0.5 (30 minutes), 1, 1.5, 2, 3, 4, 5, 6, 8, 10, 12, and 18 hours. […]

`COc1ncc(C)c(-c2ccc3c(c2)[nH]c(=O)c2cnn([C@H]4CCOC4)c23)c1C` [Compound A, (S)-7-(2-methoxy-3,5-dimethylpyridin-4-yl)-1-(tetrahydrofuran-3-yl)-1H-pyrazolo[4,3-c]quin olin-4(5H)-one] gave a Cmax (100 mg, Japanese Subjects (Part D), single oral 100 mg, read-out: Cmax GM (% CV)) of 492 ng/mL, a Vd/F (100 mg, Japanese Subjects (Part D), single oral 100 mg, read-out: Vz/F GM (% CV)) of 240 L and a half-life (100 mg, Japanese Subjects (Part D), single oral 100 mg, read-out: t1/2 Mean (SD) (converted)) of 23.9 h. For the same compound, the Tmax (100 mg, Japanese Subjects (Part D), single oral 100 mg, read-out: tmax Median) was 2.52 h, the AUC(0-inf) (100 mg, Non-Japanese Subjects (Parts A,B), single oral 100 mg, read-out: AUC(0-inf) GM) was 15000 ng·h/mL and the Cmax (100 mg, Non-Japanese Subjects (Parts A,B), single oral 100 mg, read-out: Cmax GM (% CV)) was 373 ng/mL. It also gave a Vd/F (100 mg, Non-Japanese Subjects (Parts A,B), single oral 100 mg, read-out: Vz/F GM (% CV)) of 268 L, a half-life (100 mg, Non-Japanese Subjects (Parts A,B), single oral 100 mg, read-out: t1/2 Mean (SD) (converted)) of 28.6 h and a Tmax (100 mg, Non-Japanese Subjects (Parts A,B), single oral 100 mg, read-out: tmax Median) of 2.99 h. For the same compound, the AUC(0-t) (100 mg, Part B 100 mg cohort, single oral 100 mg, Fasted, read-out: AUC (0-24 h) GM (% CV)) was 6140 ng·h/mL, the AUC(0-t) (100 mg, Part B 100 mg cohort, single oral 100 mg, Fasted, read-out: AUC (0-30 h) GM (% CV)) was 7360 ng·h/mL and the AUC(0-t) (100 mg, Part B 100 mg cohort, single oral 100 mg, Fasted, read-out: AUC (0-72 h) GM (% CV)) was 12200 ng·h/mL. The AUC(0-inf) (100 mg, Part B 100 mg cohort, single oral 100 mg, Fasted, read-out: AUC (0-inf) GM (% CV)) was 14500 ng·h/mL, the AUC(0-t) (100 mg, Part B 100 mg cohort, single oral 100 mg, Fasted, read-out: AUC (0-t) GM (% CV)) was 14400 ng·h/mL and the Cmax (100 mg, Part B 100 mg cohort, single oral 100 mg, Fasted, read-out: Cmax GM (%CV)) was 371 ng/mL. The Vd/F (100 mg, Part B 100 mg cohort, single oral 100 mg, Fasted, read-out: Vz/F GM (% CV)) was 252 L, the half-life (100 mg, Part B 100 mg cohort, single oral 100 mg, Fasted, read-out: t1/2 Mean (SD) (converted)) was 25.7 h and the Tmax (100 mg, Part B 100 mg cohort, single oral 100 mg, Fasted, read-out: tmax Median (Min, Max)) was 2.99 h. The AUC(0-t) (100 mg, Part B 100 mg cohort, single oral 100 mg, Fed (high-fat meal), read-out: AUC (0-24 h) GM (% CV)) was 7610 ng·h/mL, the AUC(0-t) (100 mg, Part B 100 mg cohort, single oral 100 mg, Fed (high-fat meal), read-out: AUC (0-30 h) GM (% CV)) was 8980 ng·h/mL and the AUC(0-t) (100 mg, Part B 100 mg cohort, single oral 100 mg, Fed (high-fat meal), read-out: AUC (0-72 h) GM (% CV)) was 14500 ng·h/mL. For the same compound, the AUC(0-inf) (100 mg, Part B 100 mg cohort, single oral 100 mg, Fed (high-fat meal), read-out: AUC (0-inf) GM (% CV)) was 17300 ng·h/mL, the AUC(0-t) (100 mg, Part B 100 mg cohort, single oral 100 mg, Fed (high-fat meal), read-out: AUC (0-t) GM (% CV)) was 17100 ng·h/mL and the Cmax (100 mg, Part B 100 mg cohort, single oral 100 mg, Fed (high-fat meal), read-out: Cmax GM (%CV)) was 536 ng/mL. The Vd/F (100 mg, Part B 100 mg cohort, single oral 100 mg, Fed (high-fat meal), read-out: Vz/F GM (% CV)) was 212 L, the half-life (100 mg, Part B 100 mg cohort, single oral 100 mg, Fed (high-fat meal), read-out: t1/2 Mean (SD) (converted)) was 26 h and the Tmax (100 mg, Part B 100 mg cohort, single oral 100 mg, Fed (high-fat meal), read-out: tmax Median (Min, Max)) was 3.49 h. For the same compound, the AUC(0-t) (100 mg, healthy adults (Parts A,B), single oral 100 mg, fasted, read-out: AUC(0-24 h) GM) was 5730 ng·h/mL, the AUC(0-t) (100 mg, healthy adults (Parts A,B), single oral 100 mg, fasted, read-out: AUC(0-30 h) GM) was 6890 ng·h/mL and the AUC(0-t) (100 mg, healthy adults (Parts A,B), single oral 100 mg, fasted, read-out: AUC(0-72 h) GM) was 11900 ng·h/mL. For the same compound, the AUC(0-inf) (100 mg, healthy adults (Parts A,B), single oral 100 mg, fasted, read-out: AUC(0-inf) GM) was 15000 ng·h/mL, the AUC(0-t) (100 mg, healthy adults (Parts A,B), single oral 100 mg, fasted, read-out: AUC(0-t) GM) was 14800 ng·h/mL and the Cmax (100 mg, healthy adults (Parts A,B), single oral 100 mg, fasted, read-out: Cmax GM) was 373 ng/mL. It also gave a Vd/F (100 mg, healthy adults (Parts A,B), single oral 100 mg, fasted, read-out: Vz/F GM) of 268 L, a half-life (100 mg, healthy adults (Parts A,B), single oral 100 mg, fasted, read-out: t1/2 Mean (converted)) of 28.6 h and a Tmax (100 mg, healthy adults (Parts A,B), single oral 100 mg, fasted, read-out: tmax Median) of 2.99 h. For the same compound, the AUC(0-inf) (100 mg, healthy elderly subjects (Part C), single oral 100 mg, read-out: AUC (0-inf) GM (% CV)) was 21300 ng·h/mL, the Cmax (100 mg, healthy elderly subjects (Part C), single oral 100 mg, read-out: Cmax GM (% CV)) was 543 ng/mL and the Vd/F (100 mg, healthy elderly subjects (Part C), single oral 100 mg, read-out: Vz/F GM (% CV)) was 253 L. The half-life (100 mg, healthy elderly subjects (Part C), single oral 100 mg, read-out: t1/2 Mean (SD) (converted)) was 38.1 h, the Tmax (100 mg, healthy elderly subjects (Part C), single oral 100 mg, read-out: tmax Median (Min, Max)) was 2.6 h and the AUC(0-t) (200 mg, healthy adults (Parts A,B), single oral 200 mg, fasted, read-out: AUC(0-24 h) GM) was 7800 ng·h/mL. For the same compound, the AUC(0-t) (200 mg, healthy adults (Parts A,B), single oral 200 mg, fasted, read-out: AUC(0-30 h) GM) was 9440 ng·h/mL, the AUC(0-t) (200 mg, healthy adults (Parts A,B), single oral 200 mg, fasted, read-out: AUC(0-72 h) GM) was 16800 ng·h/mL and the AUC(0-inf) (200 mg, healthy adults (Parts A,B), single oral 200 mg, fasted, read-out: AUC(0-inf) GM) was 22400 ng·h/mL. For the same compound, the AUC(0-t) (200 mg, healthy adults (Parts A,B), single oral 200 mg, fasted, read-out: AUC(0-t) GM) was 22000 ng·h/mL, the Cmax (200 mg, healthy adults (Parts A,B), single oral 200 mg, fasted, read-out: Cmax GM) was 539 ng/mL and the Vd/F (200 mg, healthy adults (Parts A,B), single oral 200 mg, fasted, read-out: Vz/F GM) was 384 L. The half-life (200 mg, healthy adults (Parts A,B), single oral 200 mg, fasted, read-out: t1/2 Mean (converted)) was 30.9 h, the Tmax (200 mg, healthy adults (Parts A,B), single oral 200 mg, fasted, read-out: tmax Median) was 2 h and the AUC(0-inf) (400 mg, Japanese Subjects (Part D), single oral 400 mg, read-out: AUC(0-inf) GM) was 46500 ng·h/mL. The Cmax (400 mg, Japanese Subjects (Part D), single oral 400 mg, read-out: Cmax GM (% CV)) was 1180 ng/mL, the Vd/F (400 mg, Japanese Subjects (Part D), single oral 400 mg, read-out: Vz/F GM (% CV)) was 364 L and the half-life (400 mg, Japanese Subjects (Part D), single oral 400 mg, read-out: t1/2 Mean (SD) (converted)) was 30 h. The Tmax (400 mg, Japanese Subjects (Part D), single oral 400 mg, read-out: tmax Median) was 2.25 h.
